T/C data for 16 molecules are collected here from PubChem BioAssay AID248 (DTP/NCI, 2004).

The subject of this experiment is L1210 leukemia ip in BDF1 mice, survival T/C. The experiment can be described thus: NCI In Vivo Anticancer Drug Screen. Data for tumor model L1210 Leukemia (intraperitoneal) in B6D2F1 (BDF1) mice. As to conditions: endpoint: mean survival time, higher = longer survival. The procedure, abridged:
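Tumor was transplanted into mice, which were then dosed with test compound or vehicle alone. Survival was recorded for each group, and the treated figure was expressed relative to the control figure.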

Where [1] appears, read: dose: 100.0 mg/kg/injection, schedule: Q01DX009 (ip), vehicle: saline.
The mark [2] stands for this setting: dose: 25.0 mg/kg/injection, schedule: Q01DX009 (ip), vehicle: saline with Tween-80.
Setting [3] is: dose: 50.0 mg/kg/injection, schedule: Q01DX009 (ip), vehicle: saline with Tween-80.
The mark [4] stands for this setting: dose: 100.0 mg/kg/injection, schedule: Q01DX009 (ip), vehicle: saline with Tween-80.
[5] abbreviates: dose: 100.0 mg/kg/injection, schedule: Q04DX003 (ip), vehicle: saline with Tween-80.
Setting [6] is: dose: 200.0 mg/kg/injection, schedule: Q01DX009 (ip), vehicle: saline with Tween-80.
Where [7] appears, read: dose: 400.0 mg/kg/injection, schedule: Q01DX009 (ip), vehicle: saline with Tween-80.
Where [8] appears, read: dose: 100.0 mg/kg/injection, schedule: Q01DX001 (ip), vehicle: saline.
Setting [9] is: dose: 200.0 mg/kg/injection, schedule: Q01DX001 (ip), vehicle: saline.
Setting [10] is: dose: 400.0 mg/kg/injection, schedule: Q01DX001 (ip), vehicle: saline.
[11] abbreviates: dose: 100.0 mg/kg/injection, schedule: Q04DX002 (ip), vehicle: saline with Tween-80.
Where [12] appears, read: dose: 200.0 mg/kg/injection, schedule: Q04DX002 (ip), vehicle: saline with Tween-80.
[13] abbreviates: dose: 400.0 mg/kg/injection, schedule: Q04DX002 (ip), vehicle: saline with Tween-80.
The mark [14] stands for this setting: dose: 100.0 mg/kg/injection, schedule: Q04DX003 (ip), vehicle: Klucel (hydroxypropylcellulose) (HPC).

Values joined by “and” are separate entries in the source; they are usually repeats but may differ in a detail not shown here. Equal values may be shown once. Toxic doses and inconclusive results are not listed.

For `Cc1cn(C2CC(F)C(CO)O2)c(=O)[nH]c1=O` (stereo unspecified), the T/C was 108 % of control (dose: 12.5 mg/kg/injection, schedule: Q01DX009 (ip), vehicle: saline); 102 % of control (dose: 25.0 mg/kg/injection, schedule: Q01DX009 (ip), vehicle: saline); 117 % of control (dose: 50.0 mg/kg/injection, schedule: Q01DX009 (ip), vehicle: saline); 107 % of control (dose: 78.0 mg/kg/injection, schedule: Q01DX009 (ip), vehicle: saline); 121 % of control under setting [1]; 115 % of control (dose: 130.0 mg/kg/injection, schedule: Q01DX009 (ip), vehicle: saline). For the same molecule, for the setting “dose: 360.0 mg/kg/injection, schedule: Q01DX009 (ip), vehicle: saline”, the T/C was 109 % of control.
On to `N#Cc1oc2ccccc2c1O`, for which the T/C by setting is: under setting [2], 92 % of control; under setting [3], 96 % of control; under setting [4], 92 % of control; under setting [5], 103 % of control.
With `CC(C)=NNC(=O)c1ccc(Cl)cc1`, the T/C is, setting by setting: under setting [4], 95 % of control; under setting [6], 106 % of control; under setting [7], 116 % of control.
Take `NCCCN`: the T/C reads like this: (dose: 100.0 mg/kg/injection, schedule: Q04DX003 (ip), vehicle: saline) 97 % of control; (dose: 200.0 mg/kg/injection, schedule: Q04DX003 (ip), vehicle: saline) 98 % of control; (dose: 400.0 mg/kg/injection, schedule: Q04DX003 (ip), vehicle: saline) 98 % of control.
In the case of `CCCCCCCCC[As](=O)(O)CCCCCCCCC`, the T/C was 101 % of control (dose: 50.0 mg/kg/injection, schedule: Q01DX001 (ip), vehicle: saline); 98 % of control under setting [8]; 98 % of control under setting [9]; 101 % of control under setting [10].
As for `COC(=O)c1ccccc1NC(=S)NC(=O)c1ccc(Cl)cc1Cl`, the T/C (dose: 100.0 mg/kg/injection, schedule: Q01DX001 (ip), vehicle: saline with Tween-80) was 92 % of control; the T/C under setting [4] was 97 % of control and 102 % of control; the T/C under setting [11] is 101 % of control and 88 % of control; the T/C under setting [5] was 87 % of control; the T/C (dose: 200.0 mg/kg/injection, schedule: Q01DX001 (ip), vehicle: saline with Tween-80) was 92 % of control; the T/C under setting [6] is 95 % of control and 97 % of control. Besides, the T/C by setting is: under setting [12], 103 % of control and 92 % of control; (dose: 200.0 mg/kg/injection, schedule: Q04DX003 (ip), vehicle: saline with Tween-80) 90 % of control; (dose: 400.0 mg/kg/injection, schedule: Q01DX001 (ip), vehicle: saline with Tween-80) 89 % of control; under setting [7], 97 % of control and 98 % of control; under setting [13], 106 % of control and 88 % of control; (dose: 400.0 mg/kg/injection, schedule: Q04DX003 (ip), vehicle: saline with Tween-80) 92 % of control.
Regarding `CN=C(N)Nc1ccc(C(=O)O)cc1`, the T/C runs as follows: (dose: 100.0 mg/kg/injection, schedule: Q01DX009 (ip), vehicle: water) 102 % of control; (dose: 100.0 mg/kg/injection, schedule: Q04DX003 (ip), vehicle: water) 106 % of control; (dose: 200.0 mg/kg/injection, schedule: Q01DX009 (ip), vehicle: water) 107 % of control; (dose: 200.0 mg/kg/injection, schedule: Q04DX003 (ip), vehicle: water) 89 % of control; (dose: 400.0 mg/kg/injection, schedule: Q01DX009 (ip), vehicle: water) 106 % of control; (dose: 400.0 mg/kg/injection, schedule: Q04DX003 (ip), vehicle: water) 91 % of control.
For `Oc1cc(N2CC2)c(O)cc1N1CC1`, the T/C was 154 % of control (dose: 0.3 mg/kg/injection, schedule: Q01DX009 (ip), vehicle: saline) and 118 % of control (dose: 0.5 mg/kg/injection, schedule: Q01DX009 (ip), vehicle: saline).
On to `CN(C(=O)c1ccc(Cl)c(Cl)c1)C(c1ccco1)P(=O)(c1ccccc1)c1ccccc1` (stereo unspecified), for which the T/C by setting is: under setting [4], 90 % of control; under setting [11], 96 % of control; under setting [6], 103 % of control; under setting [12], 90 % of control; under setting [7], 93 % of control; under setting [13], 93 % of control.
Take `COc1ccc(NS(=O)c2ccc(Oc3ccccc3)cc2)cc1` (stereo unspecified): the T/C by setting is: (dose: 25.6 mg/kg/injection, schedule: Q04DX002 (ip), vehicle: saline with Tween-80) 106 % of control; (dose: 64.0 mg/kg/injection, schedule: Q04DX002 (ip), vehicle: saline with Tween-80) 112 % of control; (dose: 160.0 mg/kg/injection, schedule: Q04DX002 (ip), vehicle: saline with Tween-80) 101 % of control; under setting [13], 93 % of control.
Regarding `COc1ccc(COC(=O)N=[N+]=[N-])cc1`, the T/C was 112 % of control (dose: 12.5 mg/kg/injection, schedule: Q04DX003 (ip), vehicle: Klucel (hydroxypropylcellulose) (HPC)); 98 % of control (dose: 25.0 mg/kg/injection, schedule: Q01DX009 (ip), vehicle: Klucel (hydroxypropylcellulose) (HPC)); 110 % of control (dose: 25.0 mg/kg/injection, schedule: Q04DX003 (ip), vehicle: Klucel (hydroxypropylcellulose) (HPC)); 91 % of control (dose: 50.0 mg/kg/injection, schedule: Q01DX009 (ip), vehicle: Klucel (hydroxypropylcellulose) (HPC)); 105 % of control (dose: 50.0 mg/kg/injection, schedule: Q04DX003 (ip), vehicle: Klucel (hydroxypropylcellulose) (HPC)); 98 % of control (dose: 100.0 mg/kg/injection, schedule: Q01DX001 (ip), vehicle: Klucel (hydroxypropylcellulose) (HPC)). Besides, under setting [14], the T/C was 105 % of control.
For the molecule `CC(=NC(Cc1ccccc1)C(=O)O)NC(Cc1ccccc1)C(=O)O` (stereo unspecified), the T/C by setting is: under setting [1], 106 % of control; (dose: 200.0 mg/kg/injection, schedule: Q01DX009 (ip), vehicle: saline) 101 % of control; (dose: 400.0 mg/kg/injection, schedule: Q01DX009 (ip), vehicle: saline) 100 % of control.
Take `O=[N+]([O-])c1cccc(/C=N/N2CCN(/N=C/c3cccc([N+](=O)[O-])c3)CC2)c1`: the T/C runs as follows: under setting [8], 102 % of control; under setting [9], 92 % of control; under setting [10], 96 % of control.
On to `CN(C)c1ncc(C(N)=O)cn1`, for which the T/C by setting is: (dose: 100.0 mg/kg/injection, schedule: Q01DX009 (ip), vehicle: Klucel (hydroxypropylcellulose) (HPC)) 97 % of control; under setting [14], 100 % of control; (dose: 200.0 mg/kg/injection, schedule: Q01DX009 (ip), vehicle: Klucel (hydroxypropylcellulose) (HPC)) 108 % of control; (dose: 200.0 mg/kg/injection, schedule: Q04DX003 (ip), vehicle: Klucel (hydroxypropylcellulose) (HPC)) 96 % of control; (dose: 400.0 mg/kg/injection, schedule: Q04DX003 (ip), vehicle: Klucel (hydroxypropylcellulose) (HPC)) 110 % of control.
Turning to `O=[N+]([O-])c1ccccc1CN1CCCCC1`, the T/C was 102 % of control (dose: 5.0 mg/kg/injection, schedule: Q01DX001 (ip), vehicle: saline); 102 % of control (dose: 10.0 mg/kg/injection, schedule: Q01DX001 (ip), vehicle: saline); 102 % of control (dose: 20.0 mg/kg/injection, schedule: Q01DX001 (ip), vehicle: saline).
On to `CCOC(=O)c1ccc(N=CNc2ccc(C(=O)OCC)cc2)cc1`, for which the T/C is 106 % of control (dose: 12.5 mg/kg/injection, schedule: Q01DX001 (ip), vehicle: other); 100 % of control (dose: 12.5 mg/kg/injection, schedule: Q01DX009 (ip), vehicle: saline with Tween-80); 96 % of control (dose: 12.5 mg/kg/injection, schedule: Q04DX003 (ip), vehicle: saline with Tween-80); 95 % of control (dose: 25.0 mg/kg/injection, schedule: Q01DX001 (ip), vehicle: other); 93 % of control under setting [2]; 95 % of control (dose: 25.0 mg/kg/injection, schedule: Q04DX003 (ip), vehicle: saline with Tween-80). In addition, the T/C reads like this: (dose: 50.0 mg/kg/injection, schedule: Q01DX001 (ip), vehicle: other) 93 % of control; under setting [3], 96 % of control; (dose: 50.0 mg/kg/injection, schedule: Q04DX003 (ip), vehicle: saline with Tween-80) 95 % of control.
